Consider 21 molecules from patent publication US10538521B2, “Pyrimidine derivative having antimalarial activity” (CARNA BIOSCIENCES, INC., priority 2016, dated 2020).

Experiment [1] concerns K1 strain, a drug resistant strain of Plasmodium falciparum. Briefly: In vitro antimalarial assay (p-LDH, Malstat), K1 strain. Type of experiment: cell-based. As to conditions: read-out: Antimalarial activity (IC50 value), Strain K1. The gist of the method:
(§1)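 IC50 derived from concentration-response of parasite lactate dehydrogenase signal (Malstat reagent, NBT/PES formazan at 655 nm) after freeze-thaw lysis. Infected erythrocytes (hematocrit 2%, parasitaemia 0.5 or 1%) exposed 72 h to 12.5–0.0001 μM final compound under 3% O2-4% CO2-93% N2, FCR3 and K1 alike.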

The test system of experiment [2] is FCR3 strain, a drug sensitive strain of Plasmodium falciparum. In words: In vitro antimalarial assay (p-LDH, Malstat), FCR3 strain. Type of experiment: cell-based. As to conditions: read-out: Antimalarial activity (IC50 value), Strain FCR3. An outline of the steps: as §1
[3] abbreviates: P. falciparum K1 (drug resistant), 72 h culture, p-LDH readout.
Where [4] appears, read: P. falciparum FCR3 (drug sensitive), 72 h culture, p-LDH readout.

Read-outs that look alike come from different tables or passages of the source.

A word on the IC50: it is the point on the concentration scale where inhibition reaches its midpoint. For `CC(C)Oc1cccc(Nc2nc(Nc3ccn4ccnc4c3)cc(N3CCCC3)n2)n1` [Example 153, N4-(imidazo[1,2-a]pyridin-7-yl)-N2-(6-isopropoxypyridin-2-yl)-6-(pyrrolidin-1-yl)pyrimidine-2,4-diamine], the half-inhibitory concentration (IC50) in experiment [1] (setting [3]) and in experiment [2] (setting [4]) was below 100 nM throughout.
Take `c1cc(Nc2nc(Nc3ccn4ccnc4c3)cc(N3CCCC3)n2)nc(OCCN2CCOCC2)c1` [Example 154, N4-(imidazo[1,2-a]pyridin-7-yl)-N2-[6-(2-morpholinoethoxy)pyridin-2-yl]-6-(pyrrolidin-1-yl)pyrimidine-2,4-diamine]: the IC50 in experiment [1] (setting [3]) and in experiment [2] (setting [4]) was below 100 nM each time.
For `CN(C)CCOc1cccc(Nc2nc(Nc3ccn4ccnc4c3)cc(N3CCCC3)n2)n1` [Example 155, N2-{6-[2-(dimethylamino)ethoxy]pyridin-2-yl}-N4-(imidazo[1,2-a]pyridin-7-yl)-6-(pyrrolidin-1-yl)pyrimidine-2,4-diamine], the IC50 in experiment [1] (setting [3]) and in experiment [2] (setting [4]) was below 100 nM each time.
For `CC(C)(C)OCCOc1cccc(Nc2nc(Nc3ccn4ccnc4c3)cc(N3CCCC3)n2)n1` [Example 156, N2-{6-[2-(tert-butoxy)ethoxy]pyridin-2-yl}-N4-(imidazo[1,2-a]pyridin-7-yl)-6-(pyrrolidin-1-yl)pyrimidine-2,4-diamine], the concentration for half-maximal inhibition (IC50) is 100 to 1000 nM in experiment [1] (setting [3]) and below 100 nM in experiment [2] (setting [4]).
The corresponding values for `OCCOc1cccc(Nc2nc(Nc3ccn4ccnc4c3)cc(N3CCCC3)n2)n1` [Example 157, 2-[(6-{[4-(imidazo[1,2-a]pyridin-7-ylamino)-6-(pyrrolidin-1-yl)pyrimidin-2-yl]amino}pyridin-2-yl)oxy]ethanol] are below 100 nM and below 100 nM.
With `CC(C)COc1cccc(Nc2nc(Nc3ccn4ccnc4c3)cc(N3CCCC3)n2)n1` [Example 158, N4-(imidazo[1,2-a]pyridin-7-yl)-N2-(6-isobutoxypyridin-2-yl)-6-(pyrrolidin-1-yl)pyrimidine-2,4-diamine], the IC50 is 100 to 1000 nM in experiment [1] (setting [3]) and below 100 nM in experiment [2] (setting [4]).
The corresponding values for `COCCc1cccc(Nc2nc(Nc3ccn4ccnc4c3)cc(N3CCCC3)n2)n1` [Example 159, N4-(imidazo[1,2-a]pyridin-7-yl)-N2-[6-(2-methoxyethyl)pyridin-2-yl]-6-(pyrrolidin-1-yl)pyrimidine-2,4-diamine] are below 100 nM and below 100 nM.
Turning to `CCOCCc1cccc(Nc2nc(Nc3ccn4ccnc4c3)cc(N3CCCC3)n2)n1` [Example 160, N2-[6-(2-ethoxyethyl)pyridin-2-yl]-N4-(imidazo[1,2-a]pyridin-7-yl)-6-(pyrrolidin-1-yl) pyrimidine-2,4-diamine], the IC50 in experiment [1] (setting [3]) and in experiment [2] (setting [4]) was below 100 nM in each case.
In the case of `CC(C)(C)Cc1cccc(Nc2nc(Nc3ccn4ccnc4c3)cc(N3CCCC3)n2)n1` [Example 162, N4-(imidazo[1,2-a]pyridin-7-yl)-N2-(6-neopentylpyridin-2-yl)-6-(pyrrolidin-1-yl)pyrimidine-2,4-diamine], the IC50 in experiment [1] (setting [3]) was 100 to 1000 nM; in experiment [2] (setting [4]), below 100 nM.
On to `c1cc(CCN2CCCC2)nc(Nc2nc(Nc3ccn4ccnc4c3)cc(N3CCCC3)n2)c1` [Example 163, N4-(imidazo[1,2-a]pyridin-7-yl)-6-(pyrrolidin-1-yl)-N2-{6-[2-(pyrrolidin-1-yl)ethyl]pyridin-2-yl}pyrimidine-2,4-diamine triformate], for which the IC50 in experiment [1] (K1, 72 h) is 100 to 1000 nM; in experiment [2] (FCR3, 72 h), below 100 nM.
In the case of `CCCOCc1cccc(Nc2nc(Nc3ccn4ccnc4c3)cc(N3CCCC3)n2)n1` [Example 164, N4-(imidazo[1,2-a]pyridin-7-yl)-N2-[6-(propoxymethyl)pyridin-2-yl]-6-(pyrrolidin-1-yl) pyrimidine-2,4-diamine], the IC50 in experiment [1] (setting [3]) lay within 1000 to 10000 nM; in experiment [2] (setting [4]) it was 100 to 1000 nM.
For the molecule `Cc1cc(C)nc(Nc2nc(Nc3ccn4ccnc4c3)cc(N3CCC3)n2)c1` [Example 166, 6-(azetidin-1-yl)-N2-(4,6-dimethylpyridin-2-yl)-N4-(imidazo [1,2-a]pyridin-7-yl)pyrimidine-2,4-diamine], the concentration for half-maximal inhibition (IC50) in experiment [1] (setting [3]) and in experiment [2] (setting [4]) was below 100 nM in each case.
As to `CCCCc1cccc(Nc2nc(Nc3ccn4ccnc4c3)cc(N3CCC3)n2)n1` [Example 167, 6-(azetidin-1-yl)-N2-(6-butylpyridin-2-yl)-N4-(imidazo[1,2-a]pyridin-7-yl)pyrimidine-2,4-diamine], the IC50 in experiment [1] (setting [3]) was 100 to 1000 nM; in experiment [2] (setting [4]) it was below 100 nM.
The corresponding values for `CCCCc1cccc(Nc2nc(Nc3ccn4ccnc4c3)cc(N3CCC(C)(C)C3)n2)n1` [Example 168, N2-(6-butylpyridin-2-yl)-6-(3,3-dimethylpyrrolidin-1-yl)-N4-(imidazo[l,2-a]pyridin-7-yl) pyrimidine-2,4-diamine] are 100 to 1000 nM and below 100 nM.
The corresponding values for `CCCCc1cccc(Nc2nc(Nc3ccn4ccnc4c3)cc(N3CCC4(CCOCC4)C3)n2)n1` [Example 169, N2-(6-butylpyridin-2-yl)-N4-(imidazo[1,2-a]pyridin-7-yl)-6-(8-oxa-2-azaspiro[4.5]decan-2-yl) pyrimidine-2,4-diamine] are below 100 nM and below 100 nM.
For `CCOCc1cccc(Nc2nc(Nc3ccn4ccnc4c3)cc(N3CCCC3)n2)n1` [Example 171, N2-[6-(ethoxymethyl)pyridin-2-yl]-N4-(imidazo[1,2-a]pyridin-7-yl)-6-(pyrrolidin-1-yl) pyrimidine-2,4-diamine], the IC50 in experiment [1] (setting [3]) and in experiment [2] (setting [4]) was 100 to 1000 nM each time.
Consider `CN(C)CCc1cccc(Nc2nc(Nc3ccn4ccnc4c3)cc(N3CCCC3)n2)n1` [Example 172, N2-{6-[2-(dimethylamino)ethyl]pyridin-2-yl}-N4-(imidazo[1,2-a]pyridin-7-yl)-6-(pyrrolidin-1-yl)pyrimidine-2,4-diamine], for which the half-inhibitory concentration (IC50) in experiment [1] (setting [3]) is 100 to 1000 nM; in experiment [2] (setting [4]), below 100 nM.
With `CCCCc1cccc(Nc2nc(Nc3ccn4ccnc4c3)cc(N3CCC4(CCCC4)C3)n2)n1` [Example 173, N2-(6-butylpyridin-2-yl)-N4-(imidazo[1,2-a]pyridin-7-yl)-6-(2-azaspiro[4.4]nonan-2-yl) pyrimidine-2,4-diamine], the half-inhibitory concentration (IC50) in experiment [1] (setting [3]) and in experiment [2] (setting [4]) was 100 to 1000 nM in each case.
`Cc1cc(C)nc(Nc2nc(Nc3ccn4ccnc4c3)cc(N3CCC4(CCOCC4)C3)n2)c1` [Example 175, N2-(4,6-dimethylpyridin-2-yl)-N4-(imidazo[1,2-a]pyridin-7-yl)-6-(8-oxa-2-azaspiro[4.5]decan-2-yl)pyrimidine-2,4-diamine]: the IC50 in experiment [1] (setting [3]) and in experiment [2] (setting [4]) was below 100 nM throughout.
On to `Cc1cc(C)nc(Nc2nc(Nc3ccn4ccnc4c3)cc(N3C[C@H]4CCC[C@H]4C3)n2)c1` [Example 176, N2-(4,6-dimethylpyridin-2-yl)-6-[(3aR,6aS)-hexahydrocyclopenta [c]pyrrol-2(1H)-yl]-N4-(imidazo[1,2-a]pyridin-7-yl) pyrimidine-2,4-diamine], for which the IC50 in experiment [1] (setting [3]) and in experiment [2] (setting [4]) was below 100 nM throughout.
`Cc1cc(C)nc(Nc2nc(Nc3ccn4ccnc4c3)cc(N3CC(C)(C)C3)n2)c1` [Example 177, 6-(3,3-dimethylazetidin-1-yl)-N2-(4,6-dimethylpyridin-2-yl)-N4-(imidazo[1,2-a]pyridin-7-yl)pyrimidine-2,4-diamine]: the IC50 in experiment [1] (setting [3]) and in experiment [2] (setting [4]) was below 100 nM each time.
